Experimental data reported in ChEMBL document CHEMBL5696442, “Discovery of type II inhibitors of TGFβ-activated kinase 1 (TAK1) and mitogen-activated protein kinase kinase kinase kinase 2 (MAP4K2)” (J Med Chem, 2015).
Activity calls are given as the source filed them. The rule behind the calls is not given here.

Experiments:
[1] = molecular target: 5'-AMP-activated protein kinase catalytic subunit alpha-2 (Homo sapiens) (UniProt P54646); assay: Inhibition of AMPK-alpha2 (unknown origin) at 1 uM by Ambit Kinomescan binding assay relative to control
5'-AMP-activated protein kinase catalytic subunit alpha-2 (Homo sapiens), sequence (P54646 whole entry, looked up): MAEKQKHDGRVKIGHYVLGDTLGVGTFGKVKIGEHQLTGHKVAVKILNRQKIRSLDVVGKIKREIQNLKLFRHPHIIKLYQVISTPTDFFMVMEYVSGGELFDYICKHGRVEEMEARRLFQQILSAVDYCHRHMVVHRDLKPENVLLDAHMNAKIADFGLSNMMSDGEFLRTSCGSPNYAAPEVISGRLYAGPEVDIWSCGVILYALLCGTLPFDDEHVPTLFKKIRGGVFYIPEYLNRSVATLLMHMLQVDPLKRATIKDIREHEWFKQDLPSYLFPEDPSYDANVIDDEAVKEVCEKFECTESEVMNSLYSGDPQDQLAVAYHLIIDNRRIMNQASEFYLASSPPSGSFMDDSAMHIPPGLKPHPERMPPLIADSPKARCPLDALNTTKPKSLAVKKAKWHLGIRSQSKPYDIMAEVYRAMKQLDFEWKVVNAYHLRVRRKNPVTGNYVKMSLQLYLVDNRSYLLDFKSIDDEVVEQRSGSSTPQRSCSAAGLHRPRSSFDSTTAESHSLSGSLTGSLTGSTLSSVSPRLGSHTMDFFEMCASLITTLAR

[2] = molecular target: Serine/threonine-protein kinase B-raf (Homo sapiens, UniProt P15056); assay: Inhibition of BRAF (unknown origin) at 1 uM by Ambit Kinomescan binding assay relative to control
[3] = molecular target: Homeodomain-interacting protein kinase 4 (Homo sapiens) (UniProt Q8NE63); assay: Inhibition of HIPK4 (unknown origin) at 1 uM by Ambit Kinomescan binding assay relative to control; values are per cent of control
Homeodomain-interacting protein kinase 4 (Homo sapiens), sequence (Q8NE63 whole entry): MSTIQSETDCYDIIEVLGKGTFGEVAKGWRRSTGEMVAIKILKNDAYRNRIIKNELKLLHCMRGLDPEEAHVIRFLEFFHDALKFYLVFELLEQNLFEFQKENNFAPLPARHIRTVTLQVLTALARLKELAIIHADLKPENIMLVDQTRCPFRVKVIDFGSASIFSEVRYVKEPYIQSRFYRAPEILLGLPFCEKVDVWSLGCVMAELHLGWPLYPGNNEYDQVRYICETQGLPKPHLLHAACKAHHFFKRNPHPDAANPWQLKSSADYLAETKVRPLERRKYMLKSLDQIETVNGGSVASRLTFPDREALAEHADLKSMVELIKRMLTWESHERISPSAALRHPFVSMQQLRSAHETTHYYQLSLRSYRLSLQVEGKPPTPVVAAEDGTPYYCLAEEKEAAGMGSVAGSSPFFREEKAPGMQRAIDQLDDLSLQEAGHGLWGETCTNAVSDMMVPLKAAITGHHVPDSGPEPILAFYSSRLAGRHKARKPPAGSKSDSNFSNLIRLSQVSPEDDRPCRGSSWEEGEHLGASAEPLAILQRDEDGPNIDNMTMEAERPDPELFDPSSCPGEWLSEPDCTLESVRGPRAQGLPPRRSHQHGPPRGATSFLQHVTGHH

[4] = molecular target: Cyclin-dependent kinase 9 (Homo sapiens) (UniProt P50750); assay: Inhibition of CDK9 Lys2 labeling site in human A-375 cells at 0.5 uM by KiNativ Profiling analysis relative to control; type: cell-based
Cyclin-dependent kinase 9 (Homo sapiens), sequence (P50750 whole entry): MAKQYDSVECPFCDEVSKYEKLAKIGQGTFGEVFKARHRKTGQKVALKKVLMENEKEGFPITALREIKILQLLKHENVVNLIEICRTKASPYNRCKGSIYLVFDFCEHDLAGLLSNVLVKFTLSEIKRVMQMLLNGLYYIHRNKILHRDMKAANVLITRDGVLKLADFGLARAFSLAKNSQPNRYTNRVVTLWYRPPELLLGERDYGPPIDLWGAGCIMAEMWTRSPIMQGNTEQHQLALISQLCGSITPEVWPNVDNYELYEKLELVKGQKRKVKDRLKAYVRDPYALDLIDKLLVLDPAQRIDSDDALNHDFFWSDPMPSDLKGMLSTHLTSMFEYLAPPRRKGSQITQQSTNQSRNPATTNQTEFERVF

[5] = molecular target: 5'-AMP-activated protein kinase catalytic subunit alpha-1 (Homo sapiens) (UniProt Q13131); assay: Inhibition of AMPK-alpha1 (unknown origin) at 1 uM by Ambit Kinomescan binding assay relative to control
[6] = molecular target: Serine/threonine-protein kinase 4 (Homo sapiens) (UniProt Q13043); assay: Inhibition of MST1 Lys2 labeling site harbouring DIKAGNILLNTEGHAK in human A-375 cells at 0.05 uM by KiNativ Profiling analysis relative to control
Serine/threonine-protein kinase 4 (Homo sapiens), sequence (Q13043 whole entry, looked up): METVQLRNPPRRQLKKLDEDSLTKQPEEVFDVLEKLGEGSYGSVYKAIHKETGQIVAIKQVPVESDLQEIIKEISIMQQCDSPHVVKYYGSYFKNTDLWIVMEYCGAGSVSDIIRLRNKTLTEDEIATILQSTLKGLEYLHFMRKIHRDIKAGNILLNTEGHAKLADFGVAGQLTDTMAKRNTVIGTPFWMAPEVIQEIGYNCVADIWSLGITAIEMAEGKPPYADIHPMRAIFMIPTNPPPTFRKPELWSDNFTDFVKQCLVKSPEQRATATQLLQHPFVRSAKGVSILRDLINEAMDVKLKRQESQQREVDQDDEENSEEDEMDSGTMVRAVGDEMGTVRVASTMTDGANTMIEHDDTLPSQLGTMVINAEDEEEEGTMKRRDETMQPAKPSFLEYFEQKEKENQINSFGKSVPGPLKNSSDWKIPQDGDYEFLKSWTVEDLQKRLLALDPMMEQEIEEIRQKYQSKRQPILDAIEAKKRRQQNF

[7] = tested on: Epidermal growth factor receptor (Homo sapiens), P00533 [L858R]; assay: Inhibition of EGFR L858R mutant (unknown origin) at 1 uM by Ambit Kinomescan binding assay relative to control
[8] = molecular target: Serine/threonine-protein kinase MARK1 (Homo sapiens) (UniProt Q9P0L2); assay: Inhibition of MARK1 Lys2 labeling site in human A-375 cells at 0.05 uM by KiNativ Profiling analysis relative to control; type: cell-based
[9] = molecular target: Glycogen synthase kinase-3 alpha (Homo sapiens) (UniProt P49840); assay: Inhibition of GSK3A Lys2 labeling site in human A-375 cells at 0.5 uM by KiNativ Profiling analysis relative to control; type: cell-based
[10] = molecular target: Dual specificity protein kinase CLK3 (Homo sapiens) (UniProt P49761); assay: Inhibition of CLK3 (unknown origin) at 10 uM by Ambit Kinomescan binding assay
[11] = molecular target: Calcium/calmodulin-dependent protein kinase type II subunit gamma (Homo sapiens) (UniProt Q13555); assay: Inhibition of CaMK2g K1 labeling site in human Huh-7 cells at 1 uM by KiNativ Profiling analysis relative to control; type: cell-based
[12] = molecular target: Dual specificity mitogen-activated protein kinase kinase; MEK1/2 (Homo sapiens) (UniProt P36507+Q02750); assay: Inhibition of MAP2K1/2 K2 labeling site in human Huh-7 cells at 1 uM by KiNativ Profiling analysis relative to control; type: cell-based
Dual specificity mitogen-activated protein kinase kinase; MEK1/2 (Homo sapiens), sequence (P36507 whole entry, looked up): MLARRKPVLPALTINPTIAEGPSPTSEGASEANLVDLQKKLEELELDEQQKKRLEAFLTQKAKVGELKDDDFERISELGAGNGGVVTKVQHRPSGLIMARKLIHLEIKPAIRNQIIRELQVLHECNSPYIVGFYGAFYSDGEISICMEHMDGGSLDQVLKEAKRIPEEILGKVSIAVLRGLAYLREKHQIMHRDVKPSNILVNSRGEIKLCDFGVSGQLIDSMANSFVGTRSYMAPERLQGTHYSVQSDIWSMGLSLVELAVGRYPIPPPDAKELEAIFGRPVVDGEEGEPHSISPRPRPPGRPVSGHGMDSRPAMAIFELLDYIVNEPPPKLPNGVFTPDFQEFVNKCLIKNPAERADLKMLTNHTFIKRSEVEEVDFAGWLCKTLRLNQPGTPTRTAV
Dual specificity mitogen-activated protein kinase kinase; MEK1/2 (Homo sapiens), sequence (Q02750 whole entry, looked up): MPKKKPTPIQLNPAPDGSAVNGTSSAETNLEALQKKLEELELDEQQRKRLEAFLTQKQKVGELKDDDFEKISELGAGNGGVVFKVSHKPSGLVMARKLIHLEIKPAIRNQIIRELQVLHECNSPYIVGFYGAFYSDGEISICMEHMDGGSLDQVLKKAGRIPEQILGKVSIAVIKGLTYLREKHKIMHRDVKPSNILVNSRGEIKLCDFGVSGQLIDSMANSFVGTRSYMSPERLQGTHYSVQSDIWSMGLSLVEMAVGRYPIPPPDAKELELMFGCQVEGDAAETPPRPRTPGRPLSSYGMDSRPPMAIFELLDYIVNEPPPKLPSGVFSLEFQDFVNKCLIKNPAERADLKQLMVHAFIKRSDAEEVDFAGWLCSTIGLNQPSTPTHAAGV

[13] = molecular target: Cyclin-dependent kinase 16 (Homo sapiens) (UniProt Q00536); assay: Inhibition of PFTAIRE1 Lys2 labeling site in human A-375 cells at 0.5 uM by KiNativ Profiling analysis relative to control; type: cell-based
Cyclin-dependent kinase 16 (Homo sapiens), sequence (Q00536 whole entry): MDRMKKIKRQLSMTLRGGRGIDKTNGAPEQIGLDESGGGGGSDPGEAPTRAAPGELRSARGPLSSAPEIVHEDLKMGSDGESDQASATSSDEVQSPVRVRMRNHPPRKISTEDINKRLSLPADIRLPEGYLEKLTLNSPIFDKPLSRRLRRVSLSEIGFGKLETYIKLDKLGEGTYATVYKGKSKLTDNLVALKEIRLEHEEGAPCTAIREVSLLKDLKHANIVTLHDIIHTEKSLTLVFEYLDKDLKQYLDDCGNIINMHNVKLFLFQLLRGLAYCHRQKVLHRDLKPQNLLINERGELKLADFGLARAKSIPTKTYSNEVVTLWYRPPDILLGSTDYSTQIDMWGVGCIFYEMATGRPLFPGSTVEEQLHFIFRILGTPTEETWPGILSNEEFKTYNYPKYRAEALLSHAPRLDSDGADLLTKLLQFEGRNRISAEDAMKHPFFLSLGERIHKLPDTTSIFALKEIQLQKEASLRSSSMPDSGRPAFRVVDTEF

[14] = molecular target: MAST1/MAST2 (Homo sapiens) (UniProt Q9Y2H9+Q6P0Q8); assay: Inhibition of MAST1/2 K2 labeling site in human Huh-7 cells at 1 uM by KiNativ Profiling analysis relative to control; type: cell-based
[15] = molecular target: T1, Inhibitor of nuclear factor kappa-B kinase subunit epsilon (Homo sapiens) (UniProt Q14164); assay: Inhibition of IKKe K2 labeling site in human Huh-7 cells at 10 uM by KiNativ Profiling analysis relative to control; type: cell-based
T1 sequence (whole entry): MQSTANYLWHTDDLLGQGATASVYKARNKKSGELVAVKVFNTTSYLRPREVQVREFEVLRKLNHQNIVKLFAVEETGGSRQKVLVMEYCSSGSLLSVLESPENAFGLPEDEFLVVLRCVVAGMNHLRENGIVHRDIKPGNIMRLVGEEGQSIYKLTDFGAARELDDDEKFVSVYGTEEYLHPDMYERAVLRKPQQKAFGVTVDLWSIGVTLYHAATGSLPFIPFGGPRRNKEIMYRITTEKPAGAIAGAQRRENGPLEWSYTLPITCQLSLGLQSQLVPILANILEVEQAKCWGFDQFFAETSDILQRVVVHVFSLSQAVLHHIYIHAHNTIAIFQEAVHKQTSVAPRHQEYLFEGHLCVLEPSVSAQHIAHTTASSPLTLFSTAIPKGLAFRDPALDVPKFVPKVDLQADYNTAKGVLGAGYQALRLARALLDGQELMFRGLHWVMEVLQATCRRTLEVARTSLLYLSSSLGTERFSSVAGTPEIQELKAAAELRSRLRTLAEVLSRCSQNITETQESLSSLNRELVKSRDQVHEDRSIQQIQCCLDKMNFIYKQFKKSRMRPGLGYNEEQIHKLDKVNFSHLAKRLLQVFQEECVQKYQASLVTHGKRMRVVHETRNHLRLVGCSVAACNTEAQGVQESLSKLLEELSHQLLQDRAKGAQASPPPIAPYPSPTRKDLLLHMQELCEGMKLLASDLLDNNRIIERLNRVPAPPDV

[16] = molecular target: Dual specificity protein kinase TTK (Homo sapiens) (UniProt P33981); assay: Inhibition of TTK (unknown origin) at 10 uM by Ambit Kinomescan binding assay relative to control; values are per cent of control
[17] = molecular target: Maternal embryonic leucine zipper kinase (Homo sapiens) (UniProt Q14680); assay: Inhibition of MELK (unknown origin) at 10 uM by Ambit Kinomescan binding assay
[18] = molecular target: Serine/threonine-protein kinase MARK2 (Homo sapiens) (UniProt Q7KZI7); assay: Inhibition of MARK2 Lys2 labeling site harbouring FIVHRDLKAENLLLDADMNIK in human Huh-7 cell lysate at 1 uM by KiNativ Profiling analysis relative to control; type: subcellular
Serine/threonine-protein kinase MARK2 (Homo sapiens), sequence (Q7KZI7 whole entry): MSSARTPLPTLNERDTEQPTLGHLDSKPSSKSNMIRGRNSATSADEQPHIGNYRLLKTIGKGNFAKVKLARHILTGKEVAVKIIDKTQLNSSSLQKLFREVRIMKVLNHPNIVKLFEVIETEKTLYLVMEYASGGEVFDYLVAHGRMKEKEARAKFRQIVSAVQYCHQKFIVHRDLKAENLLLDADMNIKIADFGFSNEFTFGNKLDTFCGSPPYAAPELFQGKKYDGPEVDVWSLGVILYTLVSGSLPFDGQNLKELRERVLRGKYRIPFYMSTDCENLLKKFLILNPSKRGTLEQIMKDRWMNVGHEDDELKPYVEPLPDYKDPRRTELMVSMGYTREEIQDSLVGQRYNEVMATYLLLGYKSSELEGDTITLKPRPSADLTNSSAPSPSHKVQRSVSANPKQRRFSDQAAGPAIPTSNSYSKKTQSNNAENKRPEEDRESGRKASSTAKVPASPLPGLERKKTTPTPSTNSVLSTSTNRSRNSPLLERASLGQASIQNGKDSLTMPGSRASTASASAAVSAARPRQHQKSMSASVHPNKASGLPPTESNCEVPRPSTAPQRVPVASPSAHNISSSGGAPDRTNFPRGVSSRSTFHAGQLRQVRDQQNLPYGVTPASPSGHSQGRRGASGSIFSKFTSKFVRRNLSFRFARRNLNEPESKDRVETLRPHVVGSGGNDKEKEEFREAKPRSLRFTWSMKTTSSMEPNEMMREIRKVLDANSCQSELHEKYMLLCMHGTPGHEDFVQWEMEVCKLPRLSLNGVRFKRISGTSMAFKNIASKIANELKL

[19] = molecular target: Tyrosine-protein kinase Fyn (Homo sapiens) (UniProt P06241); assay: Inhibition of FYN ACT labeling site in human Huh-7 cell lysate at 1 uM by KiNativ Profiling analysis relative to control; type: subcellular
Tyrosine-protein kinase Fyn (Homo sapiens), sequence (P06241 2-537 limits assumed): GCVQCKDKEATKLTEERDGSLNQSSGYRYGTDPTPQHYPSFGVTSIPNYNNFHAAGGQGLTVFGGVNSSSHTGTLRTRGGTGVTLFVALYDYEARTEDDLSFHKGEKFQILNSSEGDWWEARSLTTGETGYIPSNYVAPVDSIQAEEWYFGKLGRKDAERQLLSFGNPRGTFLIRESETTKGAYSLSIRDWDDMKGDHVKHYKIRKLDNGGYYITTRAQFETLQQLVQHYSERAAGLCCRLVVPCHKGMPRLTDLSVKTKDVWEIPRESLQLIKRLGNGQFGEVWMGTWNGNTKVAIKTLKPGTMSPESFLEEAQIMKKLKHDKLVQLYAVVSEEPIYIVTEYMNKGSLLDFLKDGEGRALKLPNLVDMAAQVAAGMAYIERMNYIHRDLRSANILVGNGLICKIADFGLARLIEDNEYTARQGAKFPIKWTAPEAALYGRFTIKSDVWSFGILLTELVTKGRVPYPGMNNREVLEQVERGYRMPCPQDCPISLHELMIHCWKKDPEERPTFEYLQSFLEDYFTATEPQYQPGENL

Molecule `CCN1CCN(Cc2ccc(NC(=O)c3ccc(C)c(/C=C/c4cnc5[nH]ccc5c4OC)c3)cc2C(F)(F)F)CC1` has an inhibition [1] of 61%, an inhibition [2] of 17% and a residual activity [3] of 16%. For the same molecule, the inhibition [4] was 1.5%, the inhibition [5] was 25% and the inhibition [6] was -7%. It also gave an inhibition [7] of 4%, an inhibition [8] of 17.5% and an inhibition [9] of 11.4%.

In the case of `CCN1CCN(Cc2ccc(NC(=O)c3ccc(C)c(Oc4ccnc5[nH]ccc45)c3)cc2C(F)(F)F)CC1`, the inhibition [10] is reported as “inactive”, the inhibition [11] is reported as -7.7% and the inhibition [12] is reported as 5.5%. For the same molecule, the inhibition [13] was 33.6%, the inhibition [14] was -7.1% and the inhibition [15] was 8.4%. The residual activity [16] was 24% and the inhibition [17] was “inactive”.

For `CNc1cc(Oc2cc(C(=O)Nc3cc(N4CCN(C)CC4)cc(C(F)(F)F)c3)ccc2C)ncn1`, the inhibition [18] was 6% and the inhibition [19] was 22%.
